Test results from article PMC11530130, “Peripherally restricted PICK1 inhibitor mPD5 ameliorates pain behaviors in murine inflammatory and neuropathic pain models” (JCI Insight, 2024).
“And” between values parts separate entries of the source, which are not always exact repeats. Equal values may be shown once.

Key:
naive mice = assay: Single exposure place preference (sePP), naive mice; assay type: in vivo, mouse
Procedure: On days 6-8, the escape hole was moved
90 degrees, and all mice went through the second bout of training. On day nine, a second probe trial was performed testing the reversal learning of the mice.
Cancer induced bone pain was induced as described in the “Induction of cancer induced bone pain (CIBP model)"-section. For the assessment of limb use, all mice from one cage were placed in an empty transparent plastic box and left for ten min to habituate. One mouse at a time was moved by tunnel handling or scooping to an identical plastic box for the limb use test. […]
gait, 3 Insignificant limping, 2 Significant limping and shift in bodyweight towards the healthy limb 1 Significant limping and partial lack of use of ipsilateral leg 0 Total lack of use of ipsilateral leg. A score of 0 was used as a humane endpoint. Urine and faeces were cleaned from the plastic box with a dry paper towel between mice from the same cage, and a new plastic box was used for mice from different cages. The limb use test was video filmed for later […]
Assessment of static weight bearing. […]
Initial perception of the drugs was measured by single exposure place preference experiments performed in an elongated three compartment apparatus (67.5 cm x 24 cm) with a biased design of different floor textures and wall patterns and a neutral zone in the middle. […]

[1] = system: mice, spared nerve injury (SNI) model; assay: SNI model, marble-burying test; assay type: in vivo, mouse
Procedure: solution (0.05 mg/kg) injected s.c. 30 min before surgery (10 μL/g). For surgery, mice were anaesthetised with ketamine (100 mg/kg, i.p.) and xylazine (10 mg/kg, i.p.) (volume 10 µL/g) with 100 μL of 1% xylocaine solution infiltrated at the site of the incision. The distal trifurcation of the sciatic nerve was identified, and the tibial and common peroneal branches were ligated with polypropylene nonabsorbable 6-0 sutures (Ethicon) and 1 mm was cut out, leaving the sural branch intact. The wound was closed with sutures, and the animals were allowed to recover and returned to their cages. Two subcutaneous injections of buprenorphine (0.05 mg/kg) were performed with an 8 to 12 hours delay decreasing pain due to the surgery […]
Wounds were closed with surgical glue or medical clips and animals were monitored daily for signs of stress or discomfort, but in all cases recovered uneventfully. […]
For the first experiment with sustained administration of mPD5 (Figure 7C), the mice underwent a baseline von Frey reading as described in the “Mechanically-evoked pain (von Frey).”-section and SNI surgery as described in “Induction of neuropathic pain (SNI model).”-section. […] At 4,5 hours after the 10 μmol/kg mPD5 injection paw withdrawal threshold was measured again followed by a s.c. injection of 2 μmol/kg mPD5 in all animals. […]

CCCCCCCCCCCCCC(=O)N(CCOCCOCCC(=O)N[C@@H](Cc1c[nH]cn1)C(=O)N[C@@H](Cc1c[nH]c2ccccc12)C(=O)N[C@@H](CC(C)C)C(=O)N[C@@H](CCCCN)C(=O)N[C@H](C(=O)O)C(C)C)CCOCCOCCC(=O)N[C@@H](Cc1c[nH]cn1)C(=O)N[C@@H](Cc1c[nH]c2ccccc12)C(=O)N[C@@H](CC(C)C)C(=O)N[C@@H](CCCCN)C(=O)N[C@H](C(=O)O)C(C)C [mPD5, myristoyl-NPEG4-(HWLKV)2]
time spent in the paired compartment, individual mice (naive mice; naive mice conditioned with 30 μmol/kg): 310.53 and 374.063 and 737.926 and 573.794 and 360.996 and 424.662 and 697.46
preference compared to PBS (intrinsic rewarding properties, sePP) (naive mice; naive mice, 30 μmol/kg): did not show any preference
marbles buried, individual mice ([1]; 1 hour after s.c. 10 μmol/kg): 6 and 7 and 9 and 8 and 3 and 1 and 5
effect on SNI-induced decrease in marble burying ([1]; female mice, s.c. 10 μmol/kg, to the level of the naive mice): reverted significantly
